Measured values reported in patent US20180028622A1, “TREATMENT OF OSTEOPOROSIS” (Entera Bio Ltd., priority 2015, published 2018).
Where two headings read alike, the source gives them in different places.

Assays:
[1] = Open label pharmacokinetic study of oral teriparatide tablet, two visits; format: in vivo, human; settings: for Tmax: human, plasma, po, 0.75 mg; for Tmax / Cmax after 1st administration / Cmax after 2nd administration: oral tablet 0.75 mg teriparatide with SNAC and SBTI
Method: An open label comparative pharmacokinetic study was performed in healthy volunteers over the course of 3 months. Each volunteer received—in each of two visits—the same oral tablet containing 0.75 mg of teriparatide, a recombinant form of parathyroid hormone (1-34).
The formulation was composed of teriparatide (0.75 mg), SNAC (sodium 8-N-(2-hydroxybenzoyl)aminocaprylate), soybean trypsin inhibitor (SBTI) and a small amount of magnesium stearate.
Tablets were administered in the morning after an 8-hour overnight fast and immediately followed by 150 ml of water. At each visit a standard meal was provided 3 hours after drug administration. […] There was a two weeks period between the visits.
(§1) To determine parathyroid hormone(1-34) (PTH(1-34)) concentrations, blood samples (4 ml each) were drawn via an indwelling catheter from the forearm vein at predetermined time points during each visit. The cannula was flushed with 1.5 ml normal saline after each sampling. In addition, to avoid sample dilution, 1 ml of blood was drawn and discarded before the next sample. The blood samples were taken at following times: baseline (predose), 10 minutes, 15 minutes, 20 minutes, 30 minutes, 45 minutes, 60 minutes, 75 minutes, 90 minutes, 105 minutes, 2 hours, 3 hours, 4 hours and 5 hours post-administration. Each blood sample was collected into a single tube containing EDTA (ethylenediaminetetraacetic acid) and placed on ice. Within 15 minutes of blood collection, samples were centrifuged for 10 minutes at 4° C. (2500 rotations per minute) and the plasma was separated and divided into two or three aliquots. Each aliquot was transferred into appropriately labeled polypropylene tubes and stored at approximately −20° C. pending analysis. PTH(1-34) levels were measured using an IDS-iSYS automated assay for the measurement of intact PTH(1-34) in human plasma or serum.

[2] = test system: cAMP, a known marker of PTH activity; experiment: Plasma cAMP levels after oral or subcutaneous teriparatide; format: in vivo, human
Method: In addition, plasma levels of cAMP, a known marker of PTH activity, were determined in order to confirm biological activity of administered PTH. cAMP plasma levels were measured following oral administration of 680 μg teriparatide or subcutaneous injection of 20 μg teriparatide, as described hereinabove.

[3] = Phase I clinical study of oral teriparatide formulations vs subcutaneous injection, plasma PTH(1-34); format: in vivo, human
Method: A Phase I clinical study of exemplary oral formulations comprising teriparatide (parathyroid hormone (1-34)) was conducted at the Hadassah Clinical Research Center. 42 healthy volunteers were included throughout the study.
The formulation was composed of teriparatide (200, 400, 680, 1400 or 1800 μg), SNAC (sodium 8-N-(2-hydroxybenzoyl) aminocaprylate), soybean trypsin inhibitor and magnesium stearate.
Tablets were administered in the morning after an 8-hour overnight fast and immediately followed by 150 ml of water. At each visit a standard meal was provided 3 hours after drug administration.
as §1, with “hormone” for “hormone(1-34) (PTH(1-34))”, “points.” for “points during each visit.”, “(predose),” for “(predose), 10 minutes,”, “15” for “15 minutes, 20”
Oral administration of teriparatide was performed as described hereinabove at doses of 200, 400, 680, 1400 or 1800 μg. The Cmax of PTH(1-34) for each orally administered dose was compared with the Cmax of PTH(1-34) for subcutaneous injection of 20 μg teriparatide.

[4] = Pharmacokinetic study of oral teriparatide tablet with water or sodium bicarbonate solution; format: in vivo, human; settings: oral tablet 0.75 mg with 150 ml of 3 mg/ml sodium bicarbonate solution
Method: An open label comparative pharmacokinetic study was performed on ten healthy volunteers. On different visits, each volunteer received the same oral tablet containing 0.75 mg of teriparatide, a recombinant form of parathyroid hormone (1-34) (PTH(1-34)). In the first visit, the tablet was administered with 150 ml water, whereas in the second visit the tablet was administered with 150 ml of 3 mg/ml sodium bicarbonate aqueous solution.
The formulation was composed of teriparatide (0.75 mg), SNAC (sodium 8-N-(2-hydroxybenzoyl) aminocaprylate), soybean trypsin inhibitor (SBTI) and a small amount of magnesium stearate.
Tablets were administered in the morning after an 8-hour overnight fast. At each visit a standard meal was provided 3 hours after drug administration. […] There was a two week period between the two visits.
To determine PTH(1-34) concentrations, blood samples were drawn and PTH(1-34) levels were measured using an IDS-iSYS automated assay, using procedures described in Example 1 hereinabove. Relative absorption was determined based on the AUC (area under curve) parameter.

[5] = Dissolution test of tablets in simulated gastric buffer, released SNAC by HPLC; format: physicochemical; settings: tablet with 100 mg sodium bicarbonate vs tablet without; simulated gastric buffer pH 2.0, 37° C.
Method: The tablets were in a form of a homogeneous mixture.
Each tablet formulation was subjected to a dissolution test in 100 ml of simulated gastric buffer (without pepsin), pH 2.0, at 37° C., according to USP 23 Apparatus 2 (paddle) with 50 rotations per minute. The amount of released SNAC in each sample was determined chromatographically, using an HPLC apparatus with Cosmosil™ 5 C18-MS-II (4.6 ID×250 mm) column. Mobile phase consisted of 50% acetonitrile and 50% phosphoric acid solution (0.1%). Flow rate was 1 ml/minute and injection volume was 25 μl. Amount of released SNAC was calculated as a percentage of the amount of SNAC in the formulation.

Question: For `CC[C@H](C)[C@H](NC(=O)[C@H](CCC(=O)O)NC(=O)[C@H](CO)NC(=O)[C@@H](NC(=O)[C@@H](N)CO)C(C)C)C(=O)N[C@@H](CCC(N)=O)C(=O)N[C@@H](CC(C)C)C(=O)N[C@@H](CCSC)C(=O)N[C@@H](Cc1cnc[nH]1)C(=O)N[C@@H](CC(N)=O)C(=O)N[C@@H](CC(C)C)C(=O)NCC(=O)N[C@@H](CCCCN)C(=O)N[C@@H](Cc1cnc[nH]1)C(=O)N[C@@H](CC(C)C)C(=O)N[C@@H](CC(N)=O)C(=O)N[C@@H](CO)C(=O)N[C@@H](CCSC)C(=O)N[C@@H](CCC(=O)O)C(=O)N[C@@H](CCCN=C(N)N)C(=O)N[C@H](C(=O)N[C@@H](CCC(=O)O)C(=O)N[C@@H](Cc1c[nH]c2ccccc12)C(=O)N[C@@H](CC(C)C)C(=O)N[C@@H](CCCN=C(N)N)C(=O)N[C@@H](CCCCN)C(=O)N[C@@H](CCCCN)C(=O)N[C@@H](CC(C)C)C(=O)N[C@@H](CCC(N)=O)C(=O)N[C@@H](CC(=O)O)C(=O)N[C@H](C(=O)N[C@@H](Cc1cnc[nH]1)C(=O)N[C@@H](CC(N)=O)C(=O)N[C@@H](Cc1ccccc1)C(=O)O)C(C)C)C(C)C` [teriparatide], which Tmax ([1]; subject A, fasted, plasma PTH(1-34), read-out: Tmax after 1st administration (converted)) is on record?
Answer: 15 min

Question: What about the Tmax ([1]; subject A, two weeks after 1st, read-out: Tmax after 2nd administration (converted)) of the same molecule?
Answer: 20 min

Question: And the Tmax ([1]; subject B, fasted, plasma PTH(1-34), read-out: Tmax after 1st administration (converted))?
Answer: 10 min

Question: What about the Tmax ([1]; subject B, two weeks after 1st, read-out: Tmax after 2nd administration (converted)) of the same molecule?
Answer: 20 min

Question: What about the Tmax ([1]; subject C, fasted, plasma PTH(1-34), read-out: Tmax after 1st administration (converted)) of the same molecule?
Answer: 10 min

Question: And the Tmax ([1]; subject C, two weeks after 1st, read-out: Tmax after 2nd administration (converted))?
Answer: 20 min

Question: What about the “time for plasma levels to return to baseline levels after tablet administration” value ([1]; oral tablet 0.75 mg) of the same molecule?
Answer: ≤ 60 min

Question: And the “Cmax between different administrations in a given subject” value ([1]; oral tablet 0.75 mg, two administrations two weeks apart)?
Answer: relatively constant

Question: And the “Cmax after 1st administration” value ([1]; subject A, fasted, plasma PTH(1-34))?
Answer: 195 picogram/ml

Question: What about the “Cmax after 2nd administration” value ([1]; subject A, two weeks after 1st) of the same molecule?
Answer: 283 picogram/ml

Question: What about the “Cmax after 1st administration” value ([1]; subject B, fasted, plasma PTH(1-34)) of the same molecule?
Answer: 124 picogram/ml

Question: And the “Cmax after 2nd administration” value ([1]; subject B, two weeks after 1st)?
Answer: 116 picogram/ml

Question: And the “Cmax after 1st administration” value ([1]; subject C, fasted, plasma PTH(1-34))?
Answer: 35 picogram/ml

Question: What about the “Cmax after 2nd administration” value ([1]; subject C, two weeks after 1st) of the same molecule?
Answer: 36 picogram/ml

Question: And the “plasma cAMP levels” value ([2]; oral administration of 680 μg)?
Answer: increased plasma cAMP levels to a similar degree

Question: What about the “plasma cAMP levels” value ([2]; subcutaneous administration of 20 μg) of the same molecule?
Answer: increased plasma cAMP levels to a similar degree

Question: What about the “decline of PTH levels following oral administration compared with subcutaneous administration” value ([3]; oral 1800 μg vs subcutaneous 20 μg) of the same molecule?
Answer: declined considerably more rapidly

Question: What about the “Cmax of PTH(1-34) following oral administration, relation to dose” value ([3]; oral 200, 400, 680, 1400 or 1800 μg) of the same molecule?
Answer: proportional to the dose

Question: What about the “oral dose providing a Cmax equivalent to subcutaneous administration of 20 μg teriparatide” value ([3]; oral tablet with SNAC and soybean trypsin inhibitor) of the same molecule?
Answer: roughly 750 μg

Question: And the “increase of absorption (AUC) in comparison with co-administration with water” value [4]?
Answer: about 35%

Question: For `O=C(O)CCCCCCCNC(=O)c1ccccc1O` [SNAC, sodium 8-N-(2-hydroxybenzoyl)aminocaprylate], which “dissolution (release) of SNAC from tablet” value [5] is on record?
Answer: considerably enhanced the dissolution
